This note sets out measurements from patent publication US20010034342A1, “Substituted urea and isothiourea derivatives as no synthase inhibitors” (priority 1993, published 2001).

What all share (type): biochemical
For one assay, the target named is T1, inducible human NOS (Homo sapiens, UniProt P35228).
T1 construct: Purification of NOS cytokine-induced human colorectal adenocarcinoma DLD-1 cells; endogenous in cells; host or cells: DLD-1 (ATCC No. CCL 221), induced with IFN-gamma, IL-6, TNF and IL-1beta
Briefly: Assay for inducible human NOS (citrulline formation), enzyme from cytokine-induced DLD-1 cells. The note with it: for inhibition at 25 µM: @ 25 μM inhibitor, read-out: Human Inducible, percent (inhibition) @ 25 μM.

The next assay addresses T2, Human brain NOS (Homo sapiens, UniProt P29475).
T2 construct: Purification of NOS from human brain; from tissue; host or cells: frozen human brain
As to the kind of experiment: Human brain NOS enzyme activity assay. The settings on record: for Ki: isolated enzyme from human brain.

The target in the next assay is T3, human placental NOS (Homo sapiens, UniProt P29474).
T3 construct: Purification of NOS from human placenta; from tissue; host or cells: fresh human placenta
As to the kind of experiment: Assay for human placental NOS (citrulline formation). The settings on record: for inhibition at 25 µM: @ 25 μM inhibitor, read-out: Human Placental, percent (inhibition) @ 25 μM.

Setting [1] is: isolated enzyme from DLD-1 cells, read-out: Human Inducible Ki/μM.
Setting [2] is: isolated enzyme from human placenta, read-out: Human Placental Ki/μM.
Setting [3] is: from percent inhibition at three or more concentrations at a single time point, assuming competitive inhibition with respect to arginine, read-out: Human Placental Ki/μM (footnote b).
[4] abbreviates: from percent inhibition at three or more concentrations at a single time point, assuming competitive inhibition with respect to arginine, read-out: Human Inducible Ki/μM (footnote b).

Structures can show the parent of a compound that is named as a salt. Where two headings read alike, the source gives them in different places.

T2 sequence (P29475 whole entry): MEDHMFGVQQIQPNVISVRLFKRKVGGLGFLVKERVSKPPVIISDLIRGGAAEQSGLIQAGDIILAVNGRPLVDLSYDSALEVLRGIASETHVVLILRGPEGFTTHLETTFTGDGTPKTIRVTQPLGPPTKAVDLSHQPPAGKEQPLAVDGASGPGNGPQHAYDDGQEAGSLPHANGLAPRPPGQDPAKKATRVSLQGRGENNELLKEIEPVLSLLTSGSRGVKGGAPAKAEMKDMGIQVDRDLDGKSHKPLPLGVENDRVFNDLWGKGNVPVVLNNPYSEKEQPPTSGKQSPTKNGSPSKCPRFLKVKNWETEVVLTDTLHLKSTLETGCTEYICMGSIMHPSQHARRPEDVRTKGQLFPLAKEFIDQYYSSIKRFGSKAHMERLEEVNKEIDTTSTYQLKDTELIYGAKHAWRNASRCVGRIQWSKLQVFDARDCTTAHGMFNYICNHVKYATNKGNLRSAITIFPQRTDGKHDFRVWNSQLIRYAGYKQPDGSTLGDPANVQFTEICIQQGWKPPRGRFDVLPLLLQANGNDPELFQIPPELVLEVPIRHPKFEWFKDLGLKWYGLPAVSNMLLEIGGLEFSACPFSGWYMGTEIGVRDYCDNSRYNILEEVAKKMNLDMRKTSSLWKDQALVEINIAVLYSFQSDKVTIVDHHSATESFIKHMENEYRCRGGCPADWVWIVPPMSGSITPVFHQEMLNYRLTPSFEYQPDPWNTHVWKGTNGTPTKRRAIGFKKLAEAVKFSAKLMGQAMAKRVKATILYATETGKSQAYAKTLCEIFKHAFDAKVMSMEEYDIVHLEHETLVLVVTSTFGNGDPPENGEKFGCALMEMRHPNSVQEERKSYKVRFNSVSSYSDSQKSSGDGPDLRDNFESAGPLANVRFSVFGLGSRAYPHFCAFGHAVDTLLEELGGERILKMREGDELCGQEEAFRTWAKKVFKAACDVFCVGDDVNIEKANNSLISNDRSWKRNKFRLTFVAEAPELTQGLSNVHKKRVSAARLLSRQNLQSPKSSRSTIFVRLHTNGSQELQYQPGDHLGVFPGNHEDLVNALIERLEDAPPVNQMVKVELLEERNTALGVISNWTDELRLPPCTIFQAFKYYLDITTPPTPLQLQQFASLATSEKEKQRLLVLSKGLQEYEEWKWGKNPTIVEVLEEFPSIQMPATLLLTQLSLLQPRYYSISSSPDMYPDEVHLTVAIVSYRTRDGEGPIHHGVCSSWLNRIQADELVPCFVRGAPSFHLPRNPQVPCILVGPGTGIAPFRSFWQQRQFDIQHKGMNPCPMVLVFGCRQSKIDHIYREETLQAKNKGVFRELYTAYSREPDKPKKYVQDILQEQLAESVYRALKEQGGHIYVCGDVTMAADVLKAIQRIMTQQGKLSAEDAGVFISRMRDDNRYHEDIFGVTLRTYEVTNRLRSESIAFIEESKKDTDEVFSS
T1 sequence (P35228 whole entry): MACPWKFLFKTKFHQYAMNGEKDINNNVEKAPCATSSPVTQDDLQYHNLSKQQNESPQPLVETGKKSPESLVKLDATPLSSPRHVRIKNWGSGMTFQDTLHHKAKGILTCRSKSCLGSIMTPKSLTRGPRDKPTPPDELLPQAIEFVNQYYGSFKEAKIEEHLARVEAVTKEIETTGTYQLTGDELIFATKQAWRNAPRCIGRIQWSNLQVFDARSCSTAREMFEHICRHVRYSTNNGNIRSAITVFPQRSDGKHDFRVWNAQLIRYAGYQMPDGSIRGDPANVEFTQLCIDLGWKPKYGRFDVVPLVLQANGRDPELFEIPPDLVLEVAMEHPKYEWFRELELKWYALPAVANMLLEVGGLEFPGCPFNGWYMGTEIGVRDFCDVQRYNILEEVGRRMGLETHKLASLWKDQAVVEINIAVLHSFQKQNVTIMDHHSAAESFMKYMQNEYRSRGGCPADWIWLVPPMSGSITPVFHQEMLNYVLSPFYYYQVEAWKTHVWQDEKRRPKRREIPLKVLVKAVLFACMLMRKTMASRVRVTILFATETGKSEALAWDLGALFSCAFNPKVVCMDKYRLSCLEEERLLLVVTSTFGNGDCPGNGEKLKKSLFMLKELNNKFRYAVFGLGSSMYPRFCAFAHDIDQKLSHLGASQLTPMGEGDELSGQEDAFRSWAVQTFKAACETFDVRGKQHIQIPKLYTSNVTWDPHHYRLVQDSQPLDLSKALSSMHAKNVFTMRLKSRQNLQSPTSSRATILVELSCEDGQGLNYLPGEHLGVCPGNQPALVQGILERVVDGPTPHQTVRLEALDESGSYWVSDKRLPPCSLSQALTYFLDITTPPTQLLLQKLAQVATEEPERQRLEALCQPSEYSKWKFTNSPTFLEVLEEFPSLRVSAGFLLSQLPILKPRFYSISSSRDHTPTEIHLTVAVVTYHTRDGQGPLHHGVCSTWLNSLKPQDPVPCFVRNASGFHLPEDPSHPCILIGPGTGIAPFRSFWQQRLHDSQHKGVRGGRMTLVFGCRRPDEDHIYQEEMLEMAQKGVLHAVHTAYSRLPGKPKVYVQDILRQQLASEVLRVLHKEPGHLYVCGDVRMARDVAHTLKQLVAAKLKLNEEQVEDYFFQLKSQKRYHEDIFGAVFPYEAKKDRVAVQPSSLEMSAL
T3 sequence (P29474 2-1203): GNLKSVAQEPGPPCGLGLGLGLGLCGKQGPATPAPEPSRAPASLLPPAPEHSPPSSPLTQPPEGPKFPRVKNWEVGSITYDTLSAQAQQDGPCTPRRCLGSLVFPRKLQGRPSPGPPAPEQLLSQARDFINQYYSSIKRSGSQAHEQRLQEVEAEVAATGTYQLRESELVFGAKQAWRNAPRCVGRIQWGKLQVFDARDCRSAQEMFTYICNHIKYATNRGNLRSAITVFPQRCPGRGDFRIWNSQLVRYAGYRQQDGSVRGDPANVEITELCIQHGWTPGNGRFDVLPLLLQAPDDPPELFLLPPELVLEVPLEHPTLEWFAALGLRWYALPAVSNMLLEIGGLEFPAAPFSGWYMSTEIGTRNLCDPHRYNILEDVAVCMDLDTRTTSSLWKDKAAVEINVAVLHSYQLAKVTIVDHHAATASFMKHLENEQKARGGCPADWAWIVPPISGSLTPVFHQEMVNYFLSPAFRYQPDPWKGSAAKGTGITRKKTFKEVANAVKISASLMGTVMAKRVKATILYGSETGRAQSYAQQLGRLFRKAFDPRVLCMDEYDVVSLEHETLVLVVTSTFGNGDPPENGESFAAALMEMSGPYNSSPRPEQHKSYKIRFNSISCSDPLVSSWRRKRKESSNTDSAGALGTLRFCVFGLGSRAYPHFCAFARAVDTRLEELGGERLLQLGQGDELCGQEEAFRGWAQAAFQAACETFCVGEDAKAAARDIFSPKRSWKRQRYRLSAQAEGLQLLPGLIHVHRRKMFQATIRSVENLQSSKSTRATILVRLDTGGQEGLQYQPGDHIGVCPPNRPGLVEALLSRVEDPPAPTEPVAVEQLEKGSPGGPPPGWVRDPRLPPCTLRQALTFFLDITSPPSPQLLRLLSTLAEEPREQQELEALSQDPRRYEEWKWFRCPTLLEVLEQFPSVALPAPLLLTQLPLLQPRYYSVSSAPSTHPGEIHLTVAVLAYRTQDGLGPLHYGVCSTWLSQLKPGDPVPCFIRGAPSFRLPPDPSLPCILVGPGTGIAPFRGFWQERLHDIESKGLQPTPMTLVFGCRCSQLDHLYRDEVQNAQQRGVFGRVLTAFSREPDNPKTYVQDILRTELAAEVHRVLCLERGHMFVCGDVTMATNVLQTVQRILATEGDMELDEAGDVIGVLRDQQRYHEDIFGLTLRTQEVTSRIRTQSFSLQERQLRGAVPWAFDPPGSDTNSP
Description for Human brain NOS: The mixture was centrifuged at 13,000 g for 1 hour and the supernatant was removed (about 2050 ml). […] The precipitate was pelleted at 13,000 g for 30 minutes and the pellet was resuspended in −400 mls of buffer A with 4 μM tetrahydrobiopterin, 1 μm FAD (Sigma), 1 μM FMN (Sigma). The solution was centrifuged at 41,000 g for 60 minutes. The supernatant was removed, frozen by pouring into liquid nitrogen, and stored overnight at −70° C. The mixture was thawed and passed through a 2′,5′ ADP-agarose column (0.4 g swelled in buffer A) at 4 ml/min. The column was washed with 100 ml buffer A, 200 ml buffer A with 500 mM NaCl, 100 ml Buffer A, then 30 ml buffer A with 5 mM NADPH. […] To the enzyme was added tetrahydrobiopterin to 10 μM, FAD and FMN to 1 μM, and tween to 0.1%. This solution was concentrated by centriprep-30 to a volume of approximately 500 μl. Human NOS was prepared completely analogously except the calmodulin-agarose column was not used.
Description for human placental NOS: (§1) NOS was assayed for the formation of citrulline following the procedure of Schmidt et al (PNAS 88 365-369, 1991) with these modifications: 20 mM Hepes, pH 7.4, 10 μg/ml calmodulin, 2.5 mM CaCl2 2.5 mM DTT, 125 μM NADPH 10 μM H4 Biopterin, 0.5 mg/ml BSA, and 1 μM L-[14C] arginine (New England Nuclear). Linearity of NOS-catalyzed rate was confirmed prior to kinetic studies that used single tine point determination of rate.
Description for inducible human NOS: as §1
DLD-1 (ATCC No. CCL 221) were grown at 37° C., 5% CO2 in RPMI 1640 medium supplemented with L-glutamin, penicillin, streptomycin, and 10% heat-inactivated fetal bovine serum. Cells were grown to confluency and then the following cocktail of cytokines were added: 100 units/ml interferon-gamma, 200 units/ml interleukin-6, 10 ng/ml tumor necrosis factor, and 0.5 ng/mil interleukin-1β. At 10-24 hr post-induction, cells were harvested by scraping and washed with phosphate-buffered saline. Pelleted cells were stored at −70° C. Purification of the induced NOS was performed at 4° C. Crude extract was prepared by three cycles of freeze/thawing cells in TDGB (20 mM tris pH 7.5, 10% glycerol, 1 mM DTT, 2 μM tetrahydrobiopterin). Extract was applied directly onto a column of 2′,5′ ADP sepharse (Pharmacia). Resin was sequentially washed with TDGB, 0.5 M NaCl in TDGB, TDGB. NOS was eluted with 2 mM NADPH in TDGB. BSA was immediately added to give a final concentration of 1 mg/ml. NOS could be quick frozen and stored at −70° C. without loss in activity for at least 2 months.
Assay for inducible human NOS.
The formation of citrulline was assayed as described above except that 10 μM FAD was included and calmodulin and CaCl2 were excluded from the assay mix.

As to `CCSC(=N)Nc1ccc(Oc2ccccc2)cc1` [Example 1, S-Ethyl-N-(4-phenoxyphenyl)isothiourea], the Ki on inducible human NOS (setting [1]) is 3.1 µM; on Human brain NOS it was 0.19 ± 0.01 µM; at human placental NOS (setting [2]), 4 µM.
Taken in the same sequence, the figures for `CCSC(=N)Nc1cccc(OC)c1` [Example 1A, S-ethyl-N-(3-methoxyphenyl)isothiourea] were 3.2 µM, 0.56 ± 0.02 µM and 3.1 µM.
Taken in the same sequence, the figures for `CCSC(=N)Nc1ccc(OCc2ccccc2)cc1` [Example 1B, S-ethyl-N-[4-(benzyloxy)phenyl]isothiourea] were 6.6 µM, 0.21 ± 0.01 µM and 2.8 µM.
In the case of `CCOC(=O)c1ccc(NC(=N)SCC)cc1` [Example 1C, S-ethyl-N-[4-(ethoxycarbonyl)phenyl]isothiourea], the Ki on inducible human NOS (setting [1]) was over 25 µM; on Human brain NOS, 1.6 µM; on human placental NOS (setting [2]) it was 12 µM.
In general, inhibition refers to how much of the control response was suppressed. Turning to `CCSC(=N)Nc1ccc(C(=O)O)cc1` [Example 1D, S-ethyl-N-(4-carboxyphenyl)isothiourea], at inducible human NOS, the “Human Inducible, percent (inhibition), concentration not given” value was 0%. The inhibition at 25 µM on Human brain NOS (@ 25 μM inhibitor, read-out: Human Brain, percent (inhibition) @ 25 μM) amounted to 30%; on human placental NOS it was 14%.
As to `CCSC(=N)Nc1cccc(C(=O)O)c1` [Example 1E, S-ethyl-N-(3-carboxyphenyl)isothiourea], the Ki on inducible human NOS (setting [1]) stood at 44 µM; at human placental NOS (setting [2]), 14 µM.
`CCSC(=N)Nc1ccccc1Br` [Example 1F, S-ethyl-N-(2-bromophenyl)isothiourea]: the Ki at inducible human NOS (setting [1]) is 4.7 µM; on Human brain NOS it was 0.25 ± 0.02 µM; at human placental NOS (setting [2]), 2 µM.
The like results for `CCSC(=N)Nc1ccc(N(C)C)cc1` [Example 1G, S-ethyl-N-(4-dimethylaminophenyl)isothiourea] were, in that order, 29 µM, 1.4 ± 0.01 µM and 9 µM.
Taken in the same sequence, the figures for `CCSC(=N)Nc1ccc(C2CCCCC2)cc1` [Example 1H, S-ethyl-N-(4-cyclohexylphenyl)isothiourea] were 28 µM, 1.5 ± 0.07 µM and 14 µM.
As for `CCSC(=N)Nc1ccc(O)cc1` [Example 1I, S-ethyl-N-(4-hydroxyphenyl)isothiourea], the Ki came out at 2.5 µM on inducible human NOS (setting [1]), 0.34 µM at Human brain NOS and 2.7 µM on human placental NOS (setting [2]).
Regarding `CCSC(=N)Nc1ccc(OC)cc1` [Example 1J, S-ethyl-N-(4-methoxyphenyl)isothiourea], the figures for the Ki at inducible human NOS (setting [1]), at Human brain NOS and at human placental NOS (setting [2]) were 4.9 µM, 0.29 ± 0.04 µM and 2.7 µM, respectively.
Turning to `CCSC(=N)Nc1ccccn1` [Example 1K, S-ethyl-N-(2-pyridyl)isothiourea], the inhibition at 25 µM on inducible human NOS and on human placental NOS was 48% each time. The same molecule showed a Ki on Human brain NOS of 4.8 µM.
As for `CCSC(=N)Nc1ccc(C(F)(F)F)cc1` [Example 2, S-ethyl-N-[4-(trifluoromethyl)phenyl]isothiourea hydrochloride], the inhibition at 25 µM on inducible human NOS stood at 36%. Moreover, the Ki worked out at 0.32 ± 0.02 µM at Human brain NOS and 9.4 µM at human placental NOS (setting [2]).
In the case of `CCSC(=N)Nc1cccc(Cl)c1` [Example 2B, S-Ethyl-N-(3-chlorophenyl)isothiourea], the Ki on inducible human NOS (setting [1]) amounted to 2.4 µM; at Human brain NOS, 0.45 µM; at human placental NOS (setting [2]), 1.8 µM.
The like results for `CCSC(=N)Nc1ccccc1C(C)C` [Example 2C, S-Ethyl-N-(2-isopropylphenyl)isothiourea] were, in that order, 10 µM, 1.13 ± 0.02 µM and 6.5 µM.
In the case of `CCSC(=N)Nc1ccc(C(C)C)cc1` [Example 2D, S-Ethyl-N-(4-isopropylphenyl)isothiourea], the figures for the Ki on Human brain NOS and on human placental NOS (setting [2]) were 0.33 µM and 7.7 µM, respectively.
`CCSC(=N)Nc1cccc(C(F)(F)F)c1` [Example 2E, S-Ethyl-N-[3-(trifluoromethyl)phenyl]isothiourea]: the Ki on inducible human NOS (setting [1]) worked out at 3.2 µM; on Human brain NOS, 1.1 ± 0.01 µM; on human placental NOS (setting [2]), 28 µM.
Taken in the same sequence, the figures for `CCSC(=N)Nc1ccccc1C(F)(F)F` [Example 2F, S-Ethyl-N-[2-(trifluoromethyl)phenyl]isothiourea] were 22 µM, 1.4 ± 0.01 µM and 1.8 µM.
Taken in the same sequence, the figures for `CCSC(=N)Nc1ccccc1Cl` [Example 2G] were 2.9 µM, 0.17 µM and 1.8 µM.
In the case of `CCSC(=N)Nc1ccccc1OC` [Example 2H, S-Ethyl-N-(2-methoxyphenyl)isothiourea], the values for the Ki at inducible human NOS (setting [1]), on Human brain NOS and at human placental NOS (setting [2]) were 1.4 µM, 0.17 ± 0.02 µM and 1.6 µM, respectively.
The like results for `CCSC(=N)Nc1ccc(C)cc1` [Example 2I, S-Ethyl-N-(4-methylphenyl)isothiourea] were, in that order, 1.9 µM, 0.18 ± 0.04 µM and 1 µM.
Turning to `CCSC(=N)Nc1cccnc1` [Example 2J, S-Ethyl-N-(3-pyridyl)isothiourea], the inhibition at 25 µM at inducible human NOS amounted to 47%. The values for the Ki at Human brain NOS and on human placental NOS (setting [2]) were 1 µM and 6.9 µM, respectively.
Regarding `CCSC(=N)Nc1ccc(Cl)c(C(F)(F)F)c1` [Example 2K, S-Ethyl-N-(4-chloro-3-(trifluoromethyl)phenyl)isothiourea], the Ki on inducible human NOS (setting [1]) worked out at 17 µM; on Human brain NOS it was 4.2 µM; at human placental NOS (setting [2]) it was 8.2 µM.
Regarding `CCSC(=N)Nc1cc(C(F)(F)F)ccc1Cl` [Example 2L, S-Ethyl-N-(2-chloro-5-(trifluoromethyl)phenyl)isothiourea], the “Human Inducible, percent (inhibition), concentration not given” value at inducible human NOS is recorded as 20%. For the same molecule, the “Human Brain, percent (inhibition), concentration not given” value at Human brain NOS (concentration not given) was 40%. The “Human Placental, percent (inhibition), concentration not given” value at human placental NOS came out at 6%.
For `CCSC(=N)Nc1ccncc1` [Example 2M, S-Ethyl-N-(4-pyridyl)isothiourea], the values for the Ki on inducible human NOS (setting [1]), on Human brain NOS and at human placental NOS (setting [2]) were 23 µM, 1 ± 0.2 µM and 6.9 µM, respectively.
Consider `CCOC(=N)Nc1ccc(C(F)(F)F)cc1` [Example 3A, O-Ethyl-N-(4-(trifluoromethyl)phenyl)isourea], for which the “Human Inducible, percent (inhibition), concentration not given” value at inducible human NOS was determined as 12%. On Human brain NOS, the Ki came to 1.9 ± 0.1 µM. Also, on human placental NOS, the “Human Placental, percent (inhibition), concentration not given” value is reported as 35%.
Turning to `N[C@@H](CCCNC1=NCCS1)C(=O)O` [Example 5, N^5-(2-thiazolin-2-yl)-L-ornithine], the Ki at inducible human NOS (setting [1]) came out at 3.3 µM; on human placental NOS (setting [2]) it was 5.5 µM.
The like results for `N[C@@H](CCCCNC1=NCCS1)C(=O)O` [Example 5A, N^6-(2-thiazolin-2-yl)-L-lysine] were, in that order, 11 µM and 21 µM.
As to `CSC(=N)NCc1cccc(CNC(=N)SC)c1` [Example 6, N, N′-((methylthio)iminomethyl)-m-xylylenediamine], the Ki at inducible human NOS (setting [1]) came to 2.3 µM; at Human brain NOS, 0.5 µM; at human placental NOS (setting [2]), 17 µM.
The like results for `CSC(=N)NCc1ccc(CNC(=N)SC)cc1` [Example 7, N,N-((methylthio)iminomethyl)-p-xylylenediamine] were, in that order, 45 µM, 3.2 µM and 22 µM.
Turning to `CSC(=N)NCCC[C@H](N)C(=O)O` [Example 8], the Ki was found to be 0.034 µM at inducible human NOS (from steady state inhibited rate / control rate, assuming competitive inhibition with respect to arginine, read-out: Human Inducible Ki/μM (footnote a)) and 0.07 µM on human placental NOS (setting [3]). Also, the Kd at Human brain NOS (Kd from association and dissociation rate constants for the slow onset of inhibition, read-out: Human Brain Ki/μM (footnote c: value is a Kd)) came out at 0.001 µM.
Regarding `CSC(=N)NCCCC[C@H](N)C(=O)O` [Example 9A, N^6-(imino(methylthio)methyl)L-lysine], the Ki came to 1.7 µM on inducible human NOS (setting [1]), 0.09 µM on Human brain NOS and 4.1 µM at human placental NOS (setting [2]).
As to `CC(C)SC(=N)NCCC[C@H](N)C(=O)O` [Example 9C, N^5-(imino(1-methylethylthio)methyl)-L-ornithine], the Ki stood at 0.15 µM on inducible human NOS (setting [1]), 0.9 µM at Human brain NOS and 2.1 µM on human placental NOS (setting [2]).
The like results for `CC(C)SC(=N)NCCCC[C@H](N)C(=O)O` [Example 9D, N^6-(imino(1-methylethylthio)methyl)L-lysine] were, in that order, 22.6 µM, 28 µM and 23.2 µM.
Taken in the same sequence, the figures for `CC(C)CSC(=N)NCCC[C@H](N)C(=O)O` [Example 9E, N^5-(imino(2-methylpropylthio)methyl)-L-ornithine] were 5.3 µM, 5.5 µM and 14 µM.
For `CC(C)CSC(=N)NCCCC[C@H](N)C(=O)O` [Example 9F, N^6-(imino(2-methylpropylthio)methyl)-L-lysine], the results for the Ki on Human brain NOS and on human placental NOS (setting [2]) were 61 µM and 79 µM, respectively.
For the molecule `CC(C)CSC(=N)NCCC[C@@H](N)C(=O)O` [Example 9M, N^5-((2-methylpropylthio)iminethyl)-D-ornithine], the Ki on inducible human NOS (setting [1]) is 13 µM; at Human brain NOS it was 19.5 µM.
Turning to “N^5-(ethoxyiminomethyl)-L-ornithine dihydrochloride [10^c(ii)]”, the Ki worked out at 0.1 µM on inducible human NOS (setting [4]) and 0.006 µM on human placental NOS (from steady state inhibited rate / control rate, assuming competitive inhibition with respect to arginine, read-out: Human Placental Ki/μM (footnote a)).
Regarding “N^5-(iminomethoxymethyl)-L-ornithine dihydrochloride [10^c(i)]”, the figures for the Ki on inducible human NOS (setting [4]) and at human placental NOS (setting [3]) were 0.22 µM and 0.12 µM, respectively.
Turning to “N^6-((methylpropylthio)iminomethyl-D-lysine [Example 9N]”, the Ki at Human brain NOS came to 61 µM; at human placental NOS (setting [2]) it was 99 µM.
